Values after ≈ are worked out from the molar mass of the structure shown. Where two headings read alike, the source gives them in different places.
What was measured:
[1] = test system: AzRF1-A (KU80 with mutant AzRF1 in autonomously replicating plasmid pRG3-AMA1-AzRF1); assay: NCCLS M38-A microdilution MIC, mutant AzRF1-A; type: cell-based; details: Aspergillus fumigatus; strain AzRF1-A; RPMI 1640, 48 hours, 37° C.
Description: (§1) The eight putative C6 transcription factors (TFs) were amplified from a well-characterized itraconazole-resistant strain known to over-express ABC transporters. Nascimento et al. Antimicrob. Agents Chemother. (2003) 47:1719-26. The putative mutant TFs were introduced into a wild type recipient strain and transformants screened for resistance to 10 μg/mlitraconazole. Minimum inhibition concentrations (MICs) were determined by the National Committee for Clinical Laboratory Standards (NCCLS) M38-A microdilution method in RPMI 1640 medium in the presence of 0.01 to 16.0 μg/ml after 48 hours of growth at 37° C.
(§2) Plasmid pRG3-AMA1-AzRF1 was transformed into the triazole susceptible Ku80 strain. The derived mutant AzRF1-A, containing the mutant AzRF1 in an autonomous replicating plasmid was also resistant to triazole drugs (table 2). […] Strain AzRF1-R had restored sensitivity to triazole drugs (table 2).

[2] = test system: A. fumigatus wild type strain ATCC 13073; assay: NCCLS M38-A microdilution MIC, parent strain ATCC 13073; type: cell-based; details: Aspergillus fumigatus, ATCC13073, RPMI 1640, 48 hours, 37° C.
Description: as §1

[3] = test system: KU80 DELTA (triazole susceptible Ku80 strain); assay: NCCLS M38-A microdilution MIC, parent strain KU80 DELTA; type: cell-based; details: Aspergillus fumigatus, 48 h
Description: as §1, §2

[4] = test system: AzRF1-M (homologous recombinant AzRF1-mutant of ATCC 13073); assay: NCCLS M38-A microdilution MIC, mutant AzRF1-M; type: cell-based, Aspergillus fumigatus; details: strain AzRF1-M, RPMI 1640, 48 hours, 37° C.
Description: as §1, §2

[5] = test system: AzRF1-R (derived from AzRF1-A after plasmid eviction); assay: NCCLS M38-A microdilution MIC, strain AzRF1-R; type: cell-based; details: Aspergillus fumigatus, 48 h
Description: as §1, §2

[6] = test system: wild type recipient strain transformed with mutant AzRF1; assay: NCCLS M38-A microdilution MIC, transformants carrying mutant TF AzRF1; type: cell-based; details: Aspergillus fumigatus, 48 h
Description: as §1
AzRF1 is a C6 transcription factor that is closely related to Tac1 of C. albicans with 35% sequence identity to the Tac1 proteins (GeneBank accession number ABD85289.1).

[7] = test system: AzRF1-H (homologous recombinant AzRF1-mutant of KU80); assay: NCCLS M38-A microdilution MIC, mutant AzRF1-H; type: cell-based; details: Aspergillus fumigatus; strain AzRF1-H; RPMI 1640, 48 hours, 37° C.
Description: as §1

[8] = Aspergillus fumigatus, ATCC13073, read-out: MIC

SMILES | MIC [1] [µg/mL] | MIC [2] [µg/mL] | MIC [3] [µg/mL] | MIC [4, 8] [µg/mL] | MIC [4] [µg/mL] | MIC [5] [µg/mL] | MIC [6] [µg/mL] | MIC [7] [µg/mL]
CCC(C)n1ncn(-c2ccc(N3CCN(c4ccc(OCC5COC(Cn6cncn6)(c6ccc(Cl)cc6Cl)O5)cc4)CC3)cc2)c1=O (stereo not shown) [ITRACONAZOLE, itraconazole] | > 16 | 0.25 (≈ 0.354 µM) | 0.25 (≈ 0.354 µM) | > 16 | >16.0 | > 16 | > 16 | > 16
C[C@@H](c1ncncc1F)[C@](O)(Cn1cncn1)c1ccc(F)cc1F [VORICONAZOLE, voriconazole] | > 8 | 0.06 (≈ 0.172 µM) | 0.06 (≈ 0.172 µM) | > 8 | >8.0 | > 8 | > 8 | > 8
